The target in this experiment is T1, hGIP-R (Homo sapiens, UniProt P48546).
T1 construct: expressed in transfected cells; host or cells: HEK-293 clonal cell lines
T1 sequence (P48546 22-466): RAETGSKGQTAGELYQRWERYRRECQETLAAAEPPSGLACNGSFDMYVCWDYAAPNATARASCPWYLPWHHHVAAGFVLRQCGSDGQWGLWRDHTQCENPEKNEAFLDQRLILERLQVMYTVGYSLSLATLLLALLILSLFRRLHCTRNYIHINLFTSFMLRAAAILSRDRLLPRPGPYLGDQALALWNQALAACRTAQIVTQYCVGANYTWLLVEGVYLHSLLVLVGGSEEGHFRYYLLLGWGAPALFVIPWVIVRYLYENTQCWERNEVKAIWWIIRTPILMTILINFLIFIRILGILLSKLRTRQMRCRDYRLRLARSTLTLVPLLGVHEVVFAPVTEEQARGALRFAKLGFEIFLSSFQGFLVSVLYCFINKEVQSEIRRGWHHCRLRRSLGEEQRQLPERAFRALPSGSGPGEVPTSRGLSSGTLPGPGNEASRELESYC
In words: Functional hGIP-R Assay (cAMP formation, HTRF). The experiment is classed as cell-based. The conditions noted are these: for Emax: cAMP efficacy, percent of maximal response to GIP(1-42)OH, 37° C., 0.1% bovine casein, arithmetic mean ± SEM; for EC50: cAMP potency, HEK-293 cells expressing hGIP-R, incubated at 37° C. in the presence of 0.1% bovine casein, geometric mean, read-out: Human GIP-R EC50, nM (SEM, n). Summed up: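 Relative EC50 and Emax came from four-parameter logistic fits of cAMP as a percent of the human GIP (1-42) OH maximal response. The cAMP was measured by competitive HTRF after 30 min, 37 °C compound exposure of hGIP-R HEK-293 clones in IBMX (250 μM)-containing medium.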
For orientation: Changes in cAMP serve as a functional read-out for many G protein-coupled receptors.

We go through 13 compounds from patent US20260108546A1 (ELI LILLY AND COMPANY, priority 2024, published 2026).

Usually Emax stands for the maximal effect, on the per cent scale that the assay sets. By EC50 is commonly meant the concentration needed to bring the measured effect to its halfway point. Take `Cn1cc(C[C@@H](NC(=O)[C@H]2C[C@@H]2c2ccc(-c3cnc4nn(C)cc4c3)cc2)C(=O)NC(C)(C)Cn2nc(C(F)(F)F)cc2-c2cnn3c2CN(C(=O)OC(C)(C)C)CC3)cn1` [Example 56, tert-Butyl 3-(1-(2-methyl-2-((R)-3-(1-methyl-1H-pyrazol-4-yl)-2-((1S,2S)-2-(4-(2-methyl-2H-pyrazolo[3,4-b]pyridin-5-yl)phenyl)cyclopropane-1-carboxamido)propanamido)propyl)-3-(trifluoromethyl)-1H-pyrazol-5-yl)-6,7-dihydropyrazolo[1,5-a]pyrazine-5(4H)-carboxylate]: the Emax came out at 113 ± 10.7% and the concentration for a half-maximal effect (EC50) was determined as 84.6 nM.

As to `Cn1cc(C[C@@H](NC(=O)[C@H]2C[C@@H]2c2ccc(-c3cnc4nn(C)cc4c3)cc2)C(=O)NC(C)(C)Cn2nc(C(F)(F)F)cc2-c2cc3c(=O)[nH]cnn3c2)cn1` [Example 57, (1S,2S)-N-((R)-1-((2-Methyl-1-(5-(4-oxo-3,4-dihydropyrrolo[2,1-f][1,2,4]triazin-6-yl)-3-(trifluoromethyl)-1H-pyrazol-1-yl)propan-2-yl)amino)-3-(1-methyl-1H-pyrazol-4-yl)-1-oxopropan-2-yl)-2-(4-(2-methyl-2H-pyrazolo[3,4-b]pyridin-5-yl)phenyl) cyclopropane-1-carboxamide], the Emax came to 112 ± 14.8% and the 50% effective concentration (EC50) stood at 61 nM.

Regarding `Cn1cc(C[C@@H](NC(=O)[C@H]2C[C@@H]2c2ccc(-c3cnc4nn(C)cc4c3)cc2)C(=O)NC(C)(C)Cn2nc(C(F)(F)F)cc2-c2cccn(C)c2=O)cn1` [Example 58, (1S,2S)-N-((R)-1-((2-Methyl-1-(5-(1-methyl-2-oxo-1,2-dihydropyridin-3-yl)-3-(trifluoromethyl)-1H-pyrazol-1-yl)propan-2-yl)amino)-3-(1-methyl-1H-pyrazol-4-yl)-1-oxopropan-2-yl)-2-(4-(2-methyl-2H-pyrazolo[3,4-b]pyridin-5-yl)phenyl) cyclopropane-1-carboxamide], the Emax was 110 ± 1.71% and the 50% effective concentration (EC50) was 23.8 nM.

With `Cn1cc(C[C@@H](NC(=O)[C@H]2C[C@@H]2c2ccc(-c3cnc4nn(C)cc4c3)cc2)C(=O)NC(C)(C)Cn2nc(C(F)(F)F)cc2-c2ccc(=O)[nH]c2)cn1` [Example 59, (1S,2S)-N-((R)-1-((2-Methyl-1-(5-(6-oxo-1,6-dihydropyridin-3-yl)-3-(trifluoromethyl)-1H-pyrazol-1-yl)propan-2-yl)amino)-3-(1-methyl-1H-pyrazol-4-yl)-1-oxopropan-2-yl)-2-(4-(2-methyl-2H-pyrazolo[3,4-b]pyridin-5-yl)phenyl) cyclopropane-1-carboxamide], the maximal response (Emax) stood at 122 ± 2.6% and the 50% effective concentration (EC50) came out at 49.1 nM.

In the case of `CN(C(=O)[C@H]1C[C@@H]1c1ccc(-c2cnc3nn(C)cc3c2)cc1F)[C@H](Cc1cnn(C)c1)C(=O)NC(C)(C)Cn1nc(C(F)(F)F)cc1-c1ccc(=O)n(C)c1` [Example 61, (1S,2S)-2-(2-Fluoro-4-(2-methyl-2H-pyrazolo [3,4-b]pyridin-5-yl)phenyl)-N-methyl-N-((R)-1-((2-methyl-1-(5-(1-methyl-6-oxo-1,6-dihydropyridin-3-yl)-3-(trifluoromethyl)-1H-pyrazol-1-yl)propan-2-yl)amino)-3-(1-methyl-1H-pyrazol-4-yl)-1-oxopropan-2-yl) cyclopropane-1-carboxamide], the Emax came to 88.5 ± 2.66% and the EC50 came out at 56.8 nM.

For the compound `Cn1cc2cc(-c3ccc([C@H]4C[C@@H]4C(=O)N[C@H](Cc4cnc5ncccn45)C(=O)NC(C)(C)Cn4nc(C(F)(F)F)cc4-c4ccc(=O)n(C)c4)cc3)cnc2n1` [Example 62, (1S,2S)-N-((R)-3-(imidazo[1,2-a]pyrimidin-3-yl)-1-((2-methyl-1-(5-(1-methyl-6-oxo-1,6-dihydropyridin-3-yl)-3-(trifluoromethyl)-1H-pyrazol-1-yl)propan-2-yl)amino)-1-oxopropan-2-yl)-2-(4-(2-methyl-2H-pyrazolo[3,4-b]pyridin-5-yl)phenyl) cyclopropane-1-carboxamide], the Emax was found to be 67.8 ± 10.2% and the concentration for a half-maximal effect (EC50) came to 17.5 nM.

For the compound `Cn1cc2cc(-c3ccc([C@H]4C[C@@]45CCN([C@H](Cc4cnn(C(F)F)c4)C(=O)NC(C)(C)Cn4nc(C(F)(F)F)cc4-c4ccc(=O)n(C)c4)C5=O)cc3)cnc2n1` [Example 63, (R)-3-(1-(Difluoromethyl)-1H-pyrazol-4-yl)-N-(2-methyl-1-(5-(1-methyl-6-oxo-1,6-dihydropyridin-3-yl)-3-(trifluoromethyl)-1H-pyrazol-1-yl)propan-2-yl)-2-((1R,3R)-1-(4-(2-methyl-2H-pyrazolo[3,4-b]pyridin-5-yl)phenyl)-4-oxo-5-azaspiro[2.4]heptan-5-yl)propanamide], the maximal effect (Emax) worked out at 62.1 ± 3.55% and the concentration giving a half-maximal response (EC50) turned out to be 21.6 nM.

Regarding `Cn1cc(C[C@@H](NC(=O)[C@H]2C[C@@H]2c2ccc(-c3cnc4nn(C)cc4c3)cc2)C(=O)NC(C)(C)Cn2nc(C(F)(F)F)cc2-c2cccc(=O)[nH]2)cn1` [Example 64, (1S,2S)-N—((R)-1-((2-Methyl-1-(5-(6-oxo-1,6-dihydropyridin-2-yl)-3-(trifluoromethyl)-1H-pyrazol-1-yl)propan-2-yl)amino)-3-(1-methyl-1H-pyrazol-4-yl)-1-oxopropan-2-yl)-2-(4-(2-methyl-2H-pyrazolo[3,4-b]pyridin-5-yl)phenyl)cyclopropane-1-carboxamide], the maximum response (Emax) is 128% and the concentration giving a half-maximal response (EC50) was determined as 61.9 nM.

In the case of `COCn1ncc(-c2cc(C(F)(F)F)nn2CC(C)(C)NC(=O)[C@@H](Cc2cnn(C)c2)NC(=O)[C@H]2C[C@@H]2c2ccc(-c3cnc4nn(C)cc4c3)cc2)n1` [Example 65, (1S,2S)-N—((R)-1-((1-(5-(2-(Methoxymethyl)-2H-1,2,3-triazol-4-yl)-3-(trifluoromethyl)-1H-pyrazol-1-yl)-2-methylpropan-2-yl)amino)-3-(1-methyl-1H-pyrazol-4-yl)-1-oxopropan-2-yl)-2-(4-(2-methyl-2H-pyrazolo[3,4-b]pyridin-5-yl)phenyl)cyclopropane-1-carboxamide], the Emax turned out to be 113 ± 4.23% and the 50% effective concentration (EC50) was found to be 38.1 nM.

`Cn1cc(C[C@@H](NC(=O)[C@H]2C[C@@H]2c2ccc(-c3cnc4nn(C)cc4c3)cc2)C(=O)NC(C)(C)Cn2nc(C(F)(F)F)cc2-c2cnn(C)n2)cn1` [Example 66, (1S,2S)-N—((R)-1-((2-Methyl-1-(5-(2-methyl-2H-1,2,3-triazol-4-yl)-3-(trifluoromethyl)-1H-pyrazol-1-yl)propan-2-yl)amino)-3-(1-methyl-1H-pyrazol-4-yl)-1-oxopropan-2-yl)-2-(4-(2-methyl-2H-pyrazolo[3,4-b]pyridin-5-yl)phenyl)cyclopropane-1-carboxamide]: the maximum response (Emax) was 118 ± 0.533% and the 50% effective concentration (EC50) was 99.3 nM.

As for `Cn1cc(C[C@@H](NC(=O)[C@H]2C[C@@H]2c2ccc(-c3cnc4nn(C)cc4c3)cc2)C(=O)NC(C)(C)Cn2nc(C(F)(F)F)cc2-c2ccn(C[C@H]3C[C@H](F)C3)n2)cn1` [Example 67, (1S,2S)-N—((R)-1-((1-(1-(((trans)-3-fluorocyclobutyl)methyl)-5′-(trifluoromethyl)-1H,2′H-[3,3′-bipyrazol]-2′-yl)-2-methylpropan-2-yl)amino)-3-(1-methyl-1H-pyrazol-4-yl)-1-oxopropan-2-yl)-2-(4-(2-methyl-2H-pyrazolo[3,4-b]pyridin-5-yl)phenyl)cyclopropane-1-carboxamide], the Emax amounted to 115 ± 8.68% and the concentration for a half-maximal effect (EC50) is 45 nM.

With `CC(C)(Cn1nc(C(F)(F)F)cc1-c1cn[nH]n1)NC(=O)[C@@H](Cc1cnc2ncccn12)NC(=O)[C@H]1C[C@@H]1c1ccc(-c2cnc3nc(C(F)(F)F)cn3c2)cc1` [Example 68, (1S,2S)-N—((R)-1-((1-(5-(2H-1,2,3-Triazol-4-yl)-3-(trifluoromethyl)-1H-pyrazol-1-yl)-2-methylpropan-2-yl)amino)-3-(imidazo[1,2-a]pyrimidin-3-yl)-1-oxopropan-2-yl)-2-(4-(2-(trifluoromethyl)imidazo[1,2-a]pyrimidin-6-yl)phenyl)cyclopropane-1-carboxamide], the Emax turned out to be 86.9 ± 7.93% and the EC50 came out at 0.904 nM.

For the compound `Cn1cc2cc(-c3ccc([C@H]4C[C@@H]4C(=O)N[C@H](Cc4cnc5ncccn45)C(=O)NC(C)(C)Cn4nc(C(F)(F)F)cc4-c4cn[nH]n4)cc3)cnc2n1` [Example 69, (1S,2S)-N-((R)-1-((1-(5-(2H-1,2,3-Triazol-4-yl)-3-(trifluoromethyl)-1H-pyrazol-1-yl)-2-methylpropan-2-yl)amino)-3-(imidazo[1,2-a]pyrimidin-3-yl)-1-oxopropan-2-yl)-2-(4-(2-methyl-2H-pyrazolo [3,4-b]pyridin-5-yl)phenyl)cyclopropane-1-carboxamide], the maximal effect (Emax) turned out to be 87.8 ± 8.06% and the EC50 was 34 nM.
